One assay addresses PAR4 (Homo sapiens (Human), UniProt Q96RI0). As to the kind of experiment: PAR4 FLIPR assay (antagonism of agonist-peptide-induced calcium mobilization). To be noted: H-Ala-Phe(4-F)-Pro-Gly-Trp-Leu-Val-Lys-Asn-Gly-NH2-induced intracellular calcium mobilization, PAR4-expressing HEK293 cells; read-out: PAR4 FLTPR assay (IC50). The class given is cell-based. The text has this:
The Fluorometric Imaging Plate Reader (FLIPR) assay is an exemplary in vitro assay for measuring the activity of the PAR4 antagonists of the present invention. In this assay, intracellular calcium mobilization is induced in PAR4 expressing cells by a PAR4 agonist and calcium mobilization is monitored.
HEK293 cells stably expressing PAR4 were generated by a standard method of transfection of human PAR4 (F2R23) cDNA expression vector and selected based on PAR4 protein expression or mRNA expression. […] These cells also express endogenous PAR1 and can elicit calcium signal upon stimulation with PAR1 agonist peptide. Therefore, the same cells were also used to determine selectivity against PAR1 and agonist activity for both receptors. Cells from HEK293 PAR4 Clone 1.2A (BMS Arctic ID 383940) were propagated and used for calcium mobilization studies.
FLIPR-based calcium mobilization assay in HEK293 cells was used to measure PAR4 antagonism agonism, and selectivity against PAR1. The activity of the PAR4 antagonists of the present invention were tested in PAR4 expressing cells by monitoring H-Ala-Phe(4-F)-[…]NH2-induced intracellular calcium mobilization. Counter screens for agonist activity and PAR1 antagonist activity were also performed. Briefly, PAR/PAR4-expressing HEK293 cells were grown in DMEM (Life Technology, Grand Island, N.Y.) containing 10% heat-inactivated FBS, 1% Penicillin-Streptomycin, 10 μg/mL blasticidin, and 100 μg/mL Zeocin at 37° C. with 5% CO2. Cells were plated overnight prior to the experiment in a black 384-well Purecoat Amine clear bottom plate (Becton Dickinson Biosciences, San Jose, Calif.) at 10,000 cells/well in 30 μL growth medium and incubated in a humidified chamber at 37° C. with 5% CO2 overnight. Prior to compound addition, the cell medium was replaced with 40 μL of 1× calcium and magnesium-containing Hank's Balanced Saline Solution (HBSS) (with 20 mM HEPES) and 1:1000 diluted fluorescent calcium indicator (Codex Biosolutions, Gaithersburg, Md.). After a 30 minute incubation period at 37° C. and a further 30 minute incubation and equilibration period at room temperature, 20 μL test compound (diluted in 1×HBSS buffer) was added at various concentrations at 0.17% dimethyl sulfoxide (DMSO) final concentration. Changes in fluorescence intensity were measured using a Functional Drug Screening System (FDSS, Hamamatsu, Japan) to determine agonist activities. The cells were then incubated for 30 minutes at room temperature followed by addition of 20 μL of agonist peptide for antagonist activity measurement. […] Compound potency was derived from 11-point concentration-response curves.
Chain of PAR4 (Q96RI0 18-385): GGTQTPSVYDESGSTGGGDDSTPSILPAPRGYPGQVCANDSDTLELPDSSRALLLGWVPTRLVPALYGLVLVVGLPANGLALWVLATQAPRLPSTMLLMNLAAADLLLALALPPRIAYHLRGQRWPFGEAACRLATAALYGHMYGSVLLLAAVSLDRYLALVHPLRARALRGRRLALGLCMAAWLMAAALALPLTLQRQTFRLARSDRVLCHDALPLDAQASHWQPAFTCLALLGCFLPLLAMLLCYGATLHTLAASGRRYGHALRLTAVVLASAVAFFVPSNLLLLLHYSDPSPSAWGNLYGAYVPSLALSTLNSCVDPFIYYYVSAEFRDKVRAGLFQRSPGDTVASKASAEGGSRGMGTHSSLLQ
As usually defined, the IC50 is the concentration at which inhibition is half-maximal. As to `COc1cnc2c(-c3nc4cc(F)c(O[C@H]5CC(F)(F)CC[C@H]5OC(=O)Nc5ccc(C(=O)NCC(C)(C)O)nc5)cc4s3)cc(C)cc2n1` [Example 2], the IC50 turned out to be 0.46 nM.
The same measure, in the same setting: the figure for `COc1cnc2c(-c3nc4cc(F)c(O[C@H]5CC(F)(F)CC[C@H]5OC(=O)Nc5cnc(CCO)nc5)cc4s3)cc(C)cc2n1` [Example 3] is 0.82 nM; for `COc1cnc2c(-c3nc4cc(F)c(O[C@H]5CC(F)(F)CC[C@H]5OC(=O)Nc5cnc(C)nc5)cc4s3)cc(C)cc2n1` [Example 4] it is 1.9 nM.
Regarding `COc1cnc2c(-c3nc4cc(F)c(O[C@H]5CC(F)(F)CC[C@H]5OC(=O)Nc5ccc(CCO)nc5)cc4s3)cc(C)cc2n1` [Example 5], the IC50 came to 6.8 nM.
The same measure, in the same setting: the figure for `COc1cnc2c(-c3nc4cc(F)c(O[C@H]5CC(F)(F)CC[C@H]5OC(=O)Nc5ccc(CO)nc5)cc4s3)cc(C)cc2n1` [Example 6] is 0.76 nM; for `COc1cnc2c(-c3nc4cc(F)c(O[C@H]5CC(F)(F)CC[C@H]5OC(=O)Nc5ccnc(OCCC(C)(C)O)c5)cc4s3)cc(C)cc2n1` [Example 8] it is 1.2 nM; for `COc1cnc2c(-c3nc4cc(F)c(O[C@H]5CC(F)(F)CC[C@H]5OC(=O)Nc5ccnnc5)cc4s3)cc(C)cc2n1` [Example 9] it is 12 nM.
Still for that read-out and setting: next, `COc1cnc2c(-c3nc4cc(F)c(O[C@H]5CC(F)(F)CC[C@H]5OC(=O)Nc5cnc(CO)nc5)cc4s3)cc(C)cc2n1` [Example 10]: 23 nM; `COc1cnc2c(-c3nc4cc(F)c(O[C@@H]5CC(F)(F)CC[C@@H]5OC(=O)Nc5cnc(C)nc5)cc4s3)cc(C)cc2n1` [Example 13]: 110 nM; `COc1cnc2c(-c3nc4cc(F)c(O[C@H]5CC(F)(F)CC[C@H]5OC(=O)Nc5cnc(OCCO)nc5)cc4s3)cc(C)cc2c1` [Example 15, (1R, 2S)-4,4-difluoro-2-((5-fluoro-2-(3-methoxy-6-methylquinolin-8-yl)benzo[d]thiazol-6-yl)oxy)cyclohexyl (2-(2-hydroxyethoxy)pyrimidin-5-yl)carbamate]: 0.77 nM.
For `COc1cnc2c(-c3nc4cc(F)c(O[C@H]5CC(F)(F)CC[C@H]5OC(=O)Nc5cnc(OCCO)nc5)cc4s3)cc(Cl)cc2c1` [Example 16, (1R,2S)-2-((2-(6-chloro-3-methoxyquinolin-8-vi)-5-fluorobenzo[d]thiazol-6-yl)oxy)-4,4-difluorocyclohexyl (2-(2-hydroxyethoxy)pyrimidin-5-yl)carbamate], the IC50 is 1.3 nM.
As for `COc1cnc2c(-c3nc4cc(F)c(O[C@H]5CC(F)(F)CC[C@H]5OC(=O)Nc5cnc(C)nc5)cc4s3)cc(Cl)cc2c1` [Example 17, (1R,2S)-2-((2-(6-chloro-3-methoxyquinolin-8-yl)-5-fluorobenzo[d]thiazol-6-yl)oxy)-4,4-difluorocyclohexyl (2-methylpyrimidin-5-yl)carbamate], the IC50 came to 4.1 nM.
Consider `CCOc1cnc2c(-c3nc4cc(F)c(O[C@H]5CC(F)(F)CC[C@H]5OC(=O)Nc5cnc(C)nc5)cc4s3)cc(C)cc2n1` [Example 18, (1R,2S)-2-((2-(2-ethoxy-7-methylquinoxalin-5-yl)-5-fluorobenzo[d]thiazol-6-yl)oxy)-4,4-difluorocyclohexyl (2-methylpyrimidin-5-yl)carbamate], for which the IC50 was found to be 3.9 nM.
As for `COc1cnc2c(-c3nc4cc(F)c(O[C@H]5CC(F)(F)CC[C@H]5OC(=O)Nc5cnc(OCCOP(=O)(O)O)nc5)cc4s3)cc(C)cc2n1` [Example 19, (1R,2S)-4,4-difluoro-2-((5-fluoro-2-(2-methoxy-7-methylquinoxalin-5-yl)benzo[d]thiazol-6-yl)oxy)cyclohexyl (2-(2-(phosphonooxy)ethoxy)pyrimidin-5-yl)carbamate], the IC50 is 1 nM.
On the same count and under the same terms, next, `COc1ccc(NC(=O)O[C@H]2CCC[C@H]2Oc2cc3sc(-c4cc(C)cc5nc(OC)cnc45)nc3cc2F)cn1` [Example 23]: 30 nM; `COc1ccc(NC(=O)O[C@@H]2CCC[C@@H]2Oc2cc3sc(-c4cc(C)cc5nc(OC)cnc45)nc3cc2F)nc1` [Example 24]: 7.8 nM; `COc1ccc(NC(=O)O[C@@H]2CCC[C@@H]2Oc2cc3sc(-c4cc(C)cc5nc(OC)cnc45)nc3cc2F)cc1` [Example 25]: 1.3 nM.
Consider `COc1cnc2c(-c3nc4cc(F)c(O[C@H]5CCC[C@H]5OC(=O)Nc5ncc(C)cn5)cc4s3)cc(C)cc2n1` [Example 26], for which the IC50 was 83 nM.
Turning to `COc1cnc2c(-c3nc4cc(F)c(O[C@@H]5CCC[C@@H]5OC(=O)Nc5cnc(C)nc5)cc4s3)cc(C)cc2n1` [Example 27], the IC50 turned out to be 58 nM.
Same read-out and setting: the figure for `COc1cnc2c(-c3nc4cc(F)c(O[C@H]5CCC[C@H]5OC(=O)NC(C)C)cc4s3)cc(C)cc2n1` [Example 29] is 12 nM; for `COc1cnc2c(-c3nc4cc(F)c(O[C@H]5CCC[C@H]5OC(=O)Nc5ccnc(C)c5)cc4s3)cc(C)cc2n1` [Example 30] it is 2.6 nM.
In the case of `COc1cnc2c(-c3nc4cc(F)c(O[C@H]5CCC[C@H]5OC(=O)Nc5ccc(CO)nc5)cc4s3)cc(C)cc2n1` [Example 31], the IC50 was 1.1 nM.
Still for that read-out and setting: the figure for `COc1cnc2c(-c3nc4cc(F)c(O[C@H]5CCC[C@H]5OC(=O)Nc5ccc(C)nc5)cc4s3)cc(C)cc2n1` [Example 32] is 2.6 nM; for `COc1cnc2c(-c3nc4cc(F)c(O[C@H]5CCC[C@H]5OC(=O)Nc5cncc(C#N)c5)cc4s3)cc(C)cc2n1` [Example 34] it is 1.6 nM; for `COc1cnc2c(-c3nc4cc(F)c(O[C@H]5CCC[C@H]5OC(=O)Nc5ccc(C#N)nc5)cc4s3)cc(C)cc2n1` [Example 36] it is 2.4 nM.
For `COc1cnc2c(-c3nc4cc(F)c(O[C@H]5CCC[C@H]5OC(=O)Nc5cnc(C)nc5)cc4s3)cc(C)cc2n1` [Example 37], the IC50 turned out to be 4 nM.
Same read-out and setting: next, `COc1cnc2c(-c3nc4cc(F)c(O[C@H]5CCC[C@H]5OC(N)=O)cc4s3)cc(C)cc2n1` [Example 39]: 400 nM; `COC(=O)c1ccc(NC(=O)O[C@@H]2CCC[C@@H]2Oc2cc3sc(-c4cc(C)cc5nc(OC)cnc45)nc3cc2F)cn1` [Example 47, methyl 5-(((((1R,2S)-2-((5-fluoro-2-(2-methoxy-7-methylquinoxalin-5-yl)benzo[d]thiazol-6-yl)oxy)cyclopentyl)oxy)carbonyl)amino)picolinate]: 4.2 nM.
Take `CNC(=O)c1ccc(NC(=O)O[C@@H]2CCC[C@@H]2Oc2cc3sc(-c4cc(C)cc5nc(OC)cnc45)nc3cc2F)cn1` [Example 48, (1R,2S)-2-((5-fluoro-2-(2-methoxy-7-methylquinoxalin-5-yl)benzo[d]thiazol-6-yl)oxy)cyclopentyl (6-(methylcarbamoyl)pyridin-3-yl)carbamate]: the IC50 came to 2.4 nM.
`COc1cnc2c(-c3nc4cc(F)c(O[C@H]5CCC[C@H]5OC(=O)Nc5ccc(C(N)=O)nc5)cc4s3)cc(C)cc2n1` [Example 49, (1R,2S)-2-((5-fluoro-2-(2-methoxy-7-methylquinoxalin-5-yl)benzo[d]thiazol-6-yl)oxy)cyclopentyl (6-carbamoylpyridin-3-yl)carbamate]: the IC50 worked out at 3.6 nM.
Still for that read-out and setting: the figure for `COc1cnc2c(-c3nc4cc(F)c(O[C@H]5CCC[C@H]5OC(=O)Nc5ccc(C(=O)N(C)C)nc5)cc4s3)cc(C)cc2n1` [Example 50, (1R,2S)-2-((5-fluoro-2-(2-methoxy-7-methylquinoxalin-5-yl)benzo[d]thiazol-6-yl)oxy)cyclopentyl (6-(dimethylcarbamoyl)pyridin-3-yl)carbamate] is 3.4 nM; for `COC(=O)c1ncc(NC(=O)O[C@@H]2CCC[C@@H]2Oc2cc3sc(-c4cc(C)cc5nc(OC)cnc45)nc3cc2F)cn1` [Example 51, methyl 5-(((((1R,2S)-2-((5-fluoro-2-(2-methoxy-7-methylquinoxalin-5-yl)benzo[d]thiazol-6-yl)oxy)cyclopentyl)oxy)carbonyl)amino)pyrimidine-2-carboxylate] it is 6.8 nM.

The same assay, now with this note: H-Ala-Phe(4-F)-[…]NH2-induced intracellular calcium mobilization, PAR4-expressing HEK293 cells; read-out: PAR4 FLTPR assay (IC50).
Consider `COc1ccc(NC(=O)O[C@@H]2CCC[C@@H]2Oc2cc3sc(-c4cc(C)cc5nc(OC)cnc45)nc3cc2F)cn1` [Example 22, (1R,2S)-2-((5-fluoro-2-(2-methoxy-7-methylquinoxalin-5-yl)benzo[d]thiazol-6-yl)oxy)cyclopentyl (6-methoxy pyridin-3-yl)carbamate], for which the IC50 was determined as 2.4 nM.

For the origin of these results see patent US10730868B2, “Bicyclic heteroaryl substituted compounds” (BRISTOL-MYERS SQUIBB COMPANY, priority 2016, dated 2020).
